This note sets out measurements from ChEMBL document CHEMBL1134092, “alpha-Keto heterocycle inhibitors of fatty acid amide hydrolase: carbonyl group modification and alpha-substitution” (Bioorg Med Chem Lett, 2001).

The target in this experiment is T1, Fatty-acid amide hydrolase 1 (Rattus norvegicus, UniProt P97612).
T1 sequence (P97612 whole entry): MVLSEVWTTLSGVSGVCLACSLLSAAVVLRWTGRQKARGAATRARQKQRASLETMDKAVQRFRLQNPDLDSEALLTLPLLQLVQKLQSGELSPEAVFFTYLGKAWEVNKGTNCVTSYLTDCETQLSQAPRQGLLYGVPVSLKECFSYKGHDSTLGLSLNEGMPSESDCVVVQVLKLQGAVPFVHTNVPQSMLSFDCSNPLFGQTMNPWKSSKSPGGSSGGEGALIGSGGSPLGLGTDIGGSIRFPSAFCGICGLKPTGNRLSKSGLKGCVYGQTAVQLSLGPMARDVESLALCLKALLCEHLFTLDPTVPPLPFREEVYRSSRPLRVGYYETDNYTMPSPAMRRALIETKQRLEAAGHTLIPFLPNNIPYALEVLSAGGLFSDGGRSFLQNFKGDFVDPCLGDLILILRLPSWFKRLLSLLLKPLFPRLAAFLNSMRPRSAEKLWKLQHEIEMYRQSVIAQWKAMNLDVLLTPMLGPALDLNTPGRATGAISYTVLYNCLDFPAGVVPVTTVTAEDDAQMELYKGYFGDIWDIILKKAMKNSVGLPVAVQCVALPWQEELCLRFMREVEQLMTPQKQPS
Kind of experiment: Inhibitory activity against fatty acid amide hydrolase (FAAH).
A word on the Ki: it is the dissociation constant of the complex between target and ligand, obtained from inhibition or displacement. A high value points to weaker binding. As for `CCCCCCCC/C=C\CCCCCCCC(=O)c1nc2ncccc2o1`, the Ki was 2.3 nM.
The value for `CCCCCCCC/C=C\CCCCCCCC(=O)c1ncco1` was 100 nM.
To `CCCCCCCC/C=C\CCCCCCCC(=O)c1nc2ccccc2o1` belongs 150 nM.
